Series [1] in a line: Protein binding in human plasma at 0.1 to 10 ug/ml. Type of series: ADME, cell-free. Particulars: read-out: PPB (converted).
The nature of series [2]: Volume of distribution in human at 100 mg, iv or 300 mg, po. Type of series: ADME, organism-based. The settings on record: in vivo.
The nature of series [3]: Cmax in human at 100 mg, iv administered as infusion. Type of series: ADME, organism-based. Details: dose 100 mg, route intravenous. The settings on record: in vivo.
Series [4] in a line: AUC(0 to 24 hrs) in human at 300 mg, po. Format: ADME. Details: time < 24 hr, dose 300 mg, route oral. The settings on record: in vivo.
Series [5] in a line: Terminal half life in human at 100 mg, iv or 300 mg, po. The settings on record: in vivo.
A short description of series [6]: Oral bioavailability in human 300 mg. Type of series: ADME, organism-based. The settings on record: in vivo.
Series [7] is described as follows: AUC(0 to 24 hrs) in human at 100 mg, iv. On the set-up: dose 100 mg, time < 24 hr, route intravenous. Particulars: in vivo. Type of series: ADME.
Series [8] is described as follows: Systemic clearance in human at 100 mg, iv or 300 mg, po. Format: ADME, organism-based. The settings on record: in vivo.
Series [9] is described as follows: Cmax in human at 300 mg, po. Type of series: ADME. Details: dose 300 mg, route oral. The settings on record: in vivo.
In series [10] the test system is Haemophilus influenzae. As to the kind of experiment: Antibacterial activity against Haemophilus influenzae PBS981 infected in CD-1 mouse assessed as reduction in bacterial load in lungs administered intravenously as single dose after 2 hrs of infection measured after 24 hrs post treatment. Format: functional. The settings on record: PBS981, iv.
Series [11] deals with Streptococcus pneumoniae. As to the kind of experiment: Antibacterial activity against Streptococcus pneumoniae PBS1399 infected in mouse assessed as protection against bacterial infection by measuring mouse survival administered intravenously as single dose after 2 hrs of infection measured on day 7. Format: functional. Particulars: PBS1399, iv, read-out: PD50.
The subject of series [12] is Staphylococcus aureus. As to the kind of experiment: Antibacterial activity against Staphylococcus aureus USA300. Type of series: functional.
Series [13] relates to Staphylococcus aureus. As to the kind of experiment: Antibacterial activity against Staphylococcus aureus USA400. Type of series: functional.
Series [14] can be described thus: Terminal half life in human at 50 mg, iv q12h. The settings on record: in vivo, read-out: beta t1/2. Type of series: ADME, organism-based.
The nature of series [15]: Cmax in human at 50 mg, iv q12h. Type of series: ADME, organism-based. Details: dose 50 mg, route intravenous. The settings on record: in vivo.
Series [16] can be described thus: AUC(0 to 24 hrs) in human at 50 mg, iv q12h. Type of series: ADME, organism-based. On the set-up: dose 50 mg, time < 24 hr, route intravenous. The settings on record: in vivo.
In series [17] the test system is Staphylococcus aureus. As to the kind of experiment: Antibacterial activity against Staphylococcus aureus USA300 in mouse thigh wound infection model assessed as reduction in bacterial load administered intravenously as single dose after 2 hrs of infection measured after 24 hrs post treatment. Format: functional. The settings on record: USA300, iv.
Series [18] can be described thus: Systemic clearance in human at 50 mg, iv q12h. Format: ADME, organism-based. Particulars: in vivo.
The subject of series [19] is Haemophilus influenzae. As to the kind of experiment: Antibacterial activity against Haemophilus influenzae PBS981. Format: functional.
Series [20] relates to Streptococcus pneumoniae. As to the kind of experiment: Antibacterial activity against Streptococcus pneumoniae PBS1399. Format: functional.
Series [21] concerns Staphylococcus aureus. As to the kind of experiment: Antibacterial activity against Staphylococcus aureus USA400 in mouse thigh wound infection model assessed as reduction in bacterial load administered intravenously as single dose after 2 hrs of infection measured after 24 hrs post treatment. The settings on record: USA400, iv. Type of series: functional.
The nature of series [22]: Protein binding in human plasma. Type of series: ADME, cell-free. The settings on record: read-out: PPB.
The nature of series [23]: Terminal half life in human at 1.5 mg/kg, iv q24h or 100 mg, po q12h. Type of series: ADME, organism-based. The settings on record: in vivo, read-out: beta t1/2.
Series [24] can be described thus: Systemic clearance in human at 1.5 mg/kg, iv q24h or 100 mg, po q12h. The settings on record: in vivo. Format: ADME, organism-based.
A short description of series [25]: Oral bioavailability in human at 100 mg administered q12h. Type of series: ADME, organism-based. The settings on record: in vivo.
Series [26] can be described thus: Cmax in human at 100 mg, po q12h. Format: ADME, organism-based. On the set-up: dose 100 mg, route oral. The settings on record: in vivo.
Series [27] is described as follows: AUC(0 to 24 hrs) in human at 100 mg, po q12h. Format: ADME, organism-based. Details: time < 24 hr, dose 100 mg, route oral. The settings on record: in vivo.
Series [28] in a line: Cmax in human at 1.5 mg/kg, iv q24h. Type of series: ADME, organism-based. Particulars: in vivo. Details: dose 1.5 mg/kg, route intravenous.
Series [29] can be described thus: AUC(0 to 24 hrs) in human at 1.5 mg/kg, iv q24h. Format: ADME, organism-based. On the set-up: dose 1.5 mg/kg, time < 24 hr, route intravenous. The settings on record: in vivo.

Values after ≈ are worked out from the molar mass of the structure shown.

One may read the Cmax as the highest concentration seen after dosing. In general, AUC(0-t) refers to exposure summed from dosing to a finite time, without extrapolation to infinity. A lower AUC(0-t) goes with less exposure. For orientation: bioavailability means dose-corrected exposure relative to a reference, in per cent. Lower therefore signals little systemic uptake. Usually AUC stands for the area under the concentration-time curve, a measure of exposure. Low values mean low exposure, high ones high exposure. For `CN(C)c1cc(CNCC(C)(C)C)c(O)c2c1C[C@H]1C[C@H]3[C@H](N(C)C)C(O)=C(C(N)=O)C(=O)[C@@]3(O)C(O)=C1C2=O.Cl`, the fraction unbound in series [1] was 0.79. Also, the Vd in series [2] fell in the range of 333 to 640 L. Further, the Cmax in [3] is 1800 ng/mL; in [9], 700 ng/mL. The compound also gave an AUC(0-t) at 24 h in [4] of 5900 ng·h/mL. In addition, the half-life in series [5] was 17 h. Moreover, the bioavailability in series [6] stood at 34.5%. In addition, the AUC in [7] worked out at 8800 ng·h/mL. In addition, in series [8], the CL amounted to 17.1 L/h.
For `CN(C)c1cc(NC(=O)CNC(C)(C)C)c(O)c2c1C[C@H]1C[C@H]3[C@H](N(C)C)C(O)=C(C(N)=O)C(=O)[C@@]3(O)C(O)=C1C2=O` [TIGECYCLINE], the ED50 in the series on Haemophilus influenzae [10] stood at 2.31 mg/kg; in the series with Streptococcus pneumoniae [11], 0.91 mg/kg; in the series with Staphylococcus aureus [17] it was 0.45 mg/kg; with Staphylococcus aureus [21] it was 0.46 mg/kg. Besides, the MIC was 0.125 µg/mL (≈ 0.213 µM) against Staphylococcus aureus [12], 0.06 µg/mL (≈ 0.102 µM) against Staphylococcus aureus [13], 0.25 µg/mL (≈ 0.427 µM) against Haemophilus influenzae [19] and 0.125 µg/mL (≈ 0.213 µM) in the series on Streptococcus pneumoniae [20]. For the same compound, the half-life in series [14] fell in the range of 37 to 66 h. The compound also came in with a Cmax in series [15] of 870 ng/mL. Moreover, the AUC in series [16] amounted to 4700 ng·h/mL. The same compound came in with a CL in [18] of 23.8 L/h. Further, the fraction unbound in series [22] fell in the range of 0.13 to 0.31.
Turning to `CN(C)[C@@H]1C(O)=C(C(N)=O)C(=O)[C@@]2(O)C(O)=C3C(=O)c4c(O)c(NC(=O)CN5CCCC5)cc(F)c4C[C@H]3C[C@@H]12` [ERAVACYCLINE], the half-life in [23] was in the range of 10 to 14 h. The clearance in series [24] was 297 mL/min. In addition, in [25], the bioavailability is 28%. Besides, the Cmax in series [26] amounted to 160 ng/mL; in series [28], 1900 ng/mL. Further, the AUC at 24 h in [27] came out at 3100 ng·h/mL; in series [29], 7900 ng·h/mL. Also, in series [22], the fraction unbound fell in the range of 0.13 to 0.21.
